Activity calls are given as the source filed them. The calls are words filed in the database; no cut-off is given here.
Tests used:
Cytochrome P450 1A2 = molecular target: T1, Cytochrome P450 1A2 (Homo sapiens, UniProt P05177); assay: Inhibition of CYP1A2 in human liver microsomes using phenacetin as substrate preincubated for 5 mins followed by NADPH-generating system addition and measured after 20 mins by LC-MS/MS analysis
T1 sequence (P05177 whole entry): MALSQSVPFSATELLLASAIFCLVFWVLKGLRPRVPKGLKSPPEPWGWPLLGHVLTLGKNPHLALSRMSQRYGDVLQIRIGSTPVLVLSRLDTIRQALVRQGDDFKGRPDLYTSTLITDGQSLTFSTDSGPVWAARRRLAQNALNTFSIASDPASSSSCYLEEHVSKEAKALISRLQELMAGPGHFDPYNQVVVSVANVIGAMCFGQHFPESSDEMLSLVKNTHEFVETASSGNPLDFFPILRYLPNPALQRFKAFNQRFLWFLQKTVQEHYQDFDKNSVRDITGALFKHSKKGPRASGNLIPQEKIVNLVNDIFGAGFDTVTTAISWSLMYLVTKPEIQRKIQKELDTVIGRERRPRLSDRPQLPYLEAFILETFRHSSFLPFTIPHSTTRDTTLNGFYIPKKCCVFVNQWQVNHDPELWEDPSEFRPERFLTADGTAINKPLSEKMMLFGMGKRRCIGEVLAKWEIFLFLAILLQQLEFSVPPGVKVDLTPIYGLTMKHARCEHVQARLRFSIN

Cytochrome P450 2B6 = molecular target: T2, Cytochrome P450 2B6 (Homo sapiens, UniProt P20813); assay: Inhibition of CYP2B6 in human liver microsomes using bupropion as substrate preincubated for 5 mins followed by NADPH-generating system addition and measured after 20 mins by LC-MS/MS analysis
T2 sequence (P20813 whole entry): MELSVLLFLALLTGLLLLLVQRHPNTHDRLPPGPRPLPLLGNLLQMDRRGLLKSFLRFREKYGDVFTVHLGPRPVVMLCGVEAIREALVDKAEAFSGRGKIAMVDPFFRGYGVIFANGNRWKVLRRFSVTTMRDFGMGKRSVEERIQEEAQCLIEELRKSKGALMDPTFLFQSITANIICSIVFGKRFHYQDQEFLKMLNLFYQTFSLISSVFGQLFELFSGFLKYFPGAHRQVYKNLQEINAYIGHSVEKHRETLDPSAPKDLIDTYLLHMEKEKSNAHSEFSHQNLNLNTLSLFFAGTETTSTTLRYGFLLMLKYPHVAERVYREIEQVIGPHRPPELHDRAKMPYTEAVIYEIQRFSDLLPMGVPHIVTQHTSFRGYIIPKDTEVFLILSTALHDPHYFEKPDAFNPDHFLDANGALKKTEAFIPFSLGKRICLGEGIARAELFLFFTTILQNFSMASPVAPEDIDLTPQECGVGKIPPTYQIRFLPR

[1] = Toxicity in Balb/c nude mouse xenografted with PANC1 cells assessed as pathological changes in lung at 25 to 50 mg/kg/day, ip by H and E staining-based microscopic analysis; type: organism-based; conditions: in vivo
PANC-1 [2] = assay: Effect on Twist1 expression in human PANC1 cells up to 400 nM by Western blot analysis; type: functional, cell-based
Cytochrome P450 3A4 = Cytochrome P450 3A4 (Homo sapiens, UniProt P08684); assay: Inhibition of CYP3A4 in human liver microsomes using midazolam as substrate preincubated for 5 mins followed by NADPH-generating system addition and measured after 20 mins by LC-MS/MS analysis
Myoferlin [3] = molecular target: T3, Myoferlin (Homo sapiens, UniProt Q9NZM1); assay: Inhibition of MYOF in human PANC1 cells assessed as reduction in phospho-VEGFR2 level by Western blot analysis; type: cell-based
Cytochrome P450 2C9 = Cytochrome P450 2C9 (Homo sapiens, UniProt P11712); assay: Inhibition of CYP2C9 in human liver microsomes using tolbutamide as substrate preincubated for 5 mins followed by NADPH-generating system addition and measured after 20 mins by LC-MS/MS analysis
PANC-1 [4] = assay: Antimigratory activity against human PANC1 cells measured after 18 hrs in presence of mitomycin C using crystal violet staining by inverted microscopy-based transwell assay; type: functional, cell-based
PANC-1 [5] = assay: Cytotoxicity against human PANC1 cells assessed as reduction in cell viability at 0.1 to 1 uM measured after 18 hrs by MTS assay; type: cell-based; conditions: panc-1, 18 h
PANC-1 [6] = assay: Effect on dynein expression in human PANC1 cells up to 400 nM by Western blot analysis; type: functional, cell-based
PANC-1 [7] = assay: Antimigratory activity against MYOF-knockout human PANC1 cells transfected with pcDNA3.1-MYOF measured after 18 hrs in presence of mitomycin C using crystal violet staining by inverted microscopy-based transwell assay; type: functional, cell-based
PANC-1 [8] = assay: Antimetastatic activity against human PANC1 cells harboring luciferase reporter gene xenografted in Balb/c nude mouse assessed as mouse survival at 50 mg/kg/day, ip (reference value: 25%); type: functional; conditions: PANC-1, ip
PANC-1 [9] = assay: Effect on Snail1 expression in human PANC1 cells up to 400 nM by Western blot analysis; type: functional, cell-based
PANC-1 [10] = assay: Cytotoxicity against human PANC1 cells assessed as reduction in cell viability measured after 48 hrs by MTS assay; type: cell-based; conditions: PANC-1, 48 h
Capan-2 = assay: Antimigratory activity against human Capan2 cells measured after 36 hrs in presence of mitomycin C using crystal violet staining by inverted microscopy-based transwell assay; type: functional, cell-based
PANC-1 [11] = assay: Effect on MMP2 secretion in MYOF-knockout human PANC1 cells up to 400 nM by Western blot analysis; type: functional, cell-based
[12] = Toxicity in Balb/c nude mouse xenografted with PANC1 cells assessed as pathological changes in spleen at 25 to 50 mg/kg/day, ip by H and E staining-based microscopic analysis; type: organism-based; conditions: in vivo
PANC-1 [13] = assay: Effect on VEGFR2 expression in MYOF-knockout human PANC1 cells up to 400 nM by Western blot analysis; type: functional, cell-based
PANC-1 [14] = assay: Effect on fibronectin expression in MYOF-knockout human PANC1 cells up to 400 nM by Western blot analysis; type: functional, cell-based
[15] = Toxicity in Balb/c nude mouse xenografted with PANC1 cells assessed as pathological changes in heart at 25 to 50 mg/kg/day, ip by H and E staining-based microscopic analysis; type: organism-based; conditions: in vivo
[16] = Cytotoxicity against HAF cells assessed as reduction in cell viability measured after 48 hrs by MTS assay; type: cell-based; conditions: Homo sapiens
PANC-1 [17] = assay: Antimetastatic activity against human PANC1 cells harboring luciferase reporter gene xenografted in Balb/c nude mouse assessed as reduction in lung metastasis burden by measuring reduction in luminescence at 25 mg/kg/day, ip measured every 10 days by bioluminescence imaging analysis relative to control; type: functional
[18] = molecular target: Vascular endothelial growth factor receptor 2 (Homo sapiens) (UniProt P35968); assay: Effect on VEGFR2 phosphorylation in MYOF-knockout human PANC1 cells up to 400 nM by Western blot analysis
Myoferlin [19] = molecular target: T3, Myoferlin; assay: Binding affinity to recombinant human GST-tagged MYOF C2 domain (3445 to 3912 residues) expressed in Escherichia coli BL21 (DE3) at 145 uM by STD-NMR analysis
MCF-10A = assay: Cytotoxicity against human MCF10A cells assessed as reduction in cell viability measured after 48 hrs by MTS assay; type: cell-based
MIA PaCa-2 = assay: Cytotoxicity against human MIAPaCa2 cells assessed as reduction in cell viability measured after 48 hrs by MTS assay; type: cell-based; conditions: MIA PaCa-2, 48 h

T3 sequence (Q9NZM1 whole entry): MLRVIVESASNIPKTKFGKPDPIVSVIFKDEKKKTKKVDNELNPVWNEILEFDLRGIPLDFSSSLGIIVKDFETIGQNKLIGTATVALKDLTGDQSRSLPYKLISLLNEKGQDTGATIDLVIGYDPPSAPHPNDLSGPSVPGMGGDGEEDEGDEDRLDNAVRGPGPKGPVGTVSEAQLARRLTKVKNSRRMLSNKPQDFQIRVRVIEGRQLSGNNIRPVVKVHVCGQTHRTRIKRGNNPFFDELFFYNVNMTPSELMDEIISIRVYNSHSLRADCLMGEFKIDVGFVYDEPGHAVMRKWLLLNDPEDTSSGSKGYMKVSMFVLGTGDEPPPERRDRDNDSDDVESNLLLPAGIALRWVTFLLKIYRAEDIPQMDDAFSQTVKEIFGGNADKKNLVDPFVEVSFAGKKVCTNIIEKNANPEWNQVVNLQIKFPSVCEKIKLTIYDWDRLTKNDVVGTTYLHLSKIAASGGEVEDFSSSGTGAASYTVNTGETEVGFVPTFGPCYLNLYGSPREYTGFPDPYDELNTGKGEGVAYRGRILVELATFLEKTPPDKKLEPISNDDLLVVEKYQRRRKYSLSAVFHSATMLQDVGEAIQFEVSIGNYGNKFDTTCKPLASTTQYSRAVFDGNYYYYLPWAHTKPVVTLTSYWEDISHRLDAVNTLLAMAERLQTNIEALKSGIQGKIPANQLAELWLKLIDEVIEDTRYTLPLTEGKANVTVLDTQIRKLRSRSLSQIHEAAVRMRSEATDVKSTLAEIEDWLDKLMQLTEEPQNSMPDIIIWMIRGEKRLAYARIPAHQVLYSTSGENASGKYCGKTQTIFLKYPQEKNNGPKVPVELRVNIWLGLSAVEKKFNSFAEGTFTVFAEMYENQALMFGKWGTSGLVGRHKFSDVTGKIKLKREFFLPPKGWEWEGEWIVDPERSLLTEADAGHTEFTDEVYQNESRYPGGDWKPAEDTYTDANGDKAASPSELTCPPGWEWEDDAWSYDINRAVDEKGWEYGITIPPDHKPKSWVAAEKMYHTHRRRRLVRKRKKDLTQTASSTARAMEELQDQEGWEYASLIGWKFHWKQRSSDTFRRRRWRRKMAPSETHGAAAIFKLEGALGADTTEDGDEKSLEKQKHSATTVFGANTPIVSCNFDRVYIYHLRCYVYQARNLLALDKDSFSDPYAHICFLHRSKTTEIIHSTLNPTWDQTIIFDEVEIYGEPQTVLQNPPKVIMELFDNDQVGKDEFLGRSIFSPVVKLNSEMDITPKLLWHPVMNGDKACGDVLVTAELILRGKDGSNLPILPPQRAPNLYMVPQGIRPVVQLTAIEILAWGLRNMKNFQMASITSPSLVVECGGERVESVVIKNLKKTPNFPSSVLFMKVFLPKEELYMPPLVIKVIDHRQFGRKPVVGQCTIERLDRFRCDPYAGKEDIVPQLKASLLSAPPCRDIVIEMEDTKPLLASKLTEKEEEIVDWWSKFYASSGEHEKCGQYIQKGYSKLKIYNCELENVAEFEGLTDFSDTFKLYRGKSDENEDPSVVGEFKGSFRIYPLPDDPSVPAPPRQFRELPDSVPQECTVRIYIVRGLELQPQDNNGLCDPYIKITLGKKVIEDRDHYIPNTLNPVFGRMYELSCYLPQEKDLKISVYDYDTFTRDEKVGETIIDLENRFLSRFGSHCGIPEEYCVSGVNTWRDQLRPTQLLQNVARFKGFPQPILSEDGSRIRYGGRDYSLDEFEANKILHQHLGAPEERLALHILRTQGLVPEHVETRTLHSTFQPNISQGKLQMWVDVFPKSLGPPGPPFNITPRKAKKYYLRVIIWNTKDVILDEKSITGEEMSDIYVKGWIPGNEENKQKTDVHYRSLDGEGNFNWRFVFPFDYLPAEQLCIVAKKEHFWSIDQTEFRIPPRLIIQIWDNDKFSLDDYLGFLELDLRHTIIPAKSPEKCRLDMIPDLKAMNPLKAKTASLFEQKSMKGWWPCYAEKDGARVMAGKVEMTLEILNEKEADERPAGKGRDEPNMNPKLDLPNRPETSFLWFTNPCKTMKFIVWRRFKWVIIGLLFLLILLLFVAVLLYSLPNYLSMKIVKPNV
Cytochrome P450 3A4, sequence (P08684 whole entry): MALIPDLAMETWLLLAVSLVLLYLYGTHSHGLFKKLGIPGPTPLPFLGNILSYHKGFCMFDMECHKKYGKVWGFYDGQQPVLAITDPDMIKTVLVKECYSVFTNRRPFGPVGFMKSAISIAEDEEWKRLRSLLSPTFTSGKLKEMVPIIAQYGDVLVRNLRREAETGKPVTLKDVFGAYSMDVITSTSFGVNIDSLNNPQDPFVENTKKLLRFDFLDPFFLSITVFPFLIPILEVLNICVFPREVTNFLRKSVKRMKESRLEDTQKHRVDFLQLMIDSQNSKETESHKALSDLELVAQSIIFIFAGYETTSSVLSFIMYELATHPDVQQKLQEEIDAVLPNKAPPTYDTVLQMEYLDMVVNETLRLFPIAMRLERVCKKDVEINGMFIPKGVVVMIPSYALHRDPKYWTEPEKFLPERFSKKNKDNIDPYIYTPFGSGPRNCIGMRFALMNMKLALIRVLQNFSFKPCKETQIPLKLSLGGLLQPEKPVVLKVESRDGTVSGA
Cytochrome P450 2C9, sequence (P11712 whole entry): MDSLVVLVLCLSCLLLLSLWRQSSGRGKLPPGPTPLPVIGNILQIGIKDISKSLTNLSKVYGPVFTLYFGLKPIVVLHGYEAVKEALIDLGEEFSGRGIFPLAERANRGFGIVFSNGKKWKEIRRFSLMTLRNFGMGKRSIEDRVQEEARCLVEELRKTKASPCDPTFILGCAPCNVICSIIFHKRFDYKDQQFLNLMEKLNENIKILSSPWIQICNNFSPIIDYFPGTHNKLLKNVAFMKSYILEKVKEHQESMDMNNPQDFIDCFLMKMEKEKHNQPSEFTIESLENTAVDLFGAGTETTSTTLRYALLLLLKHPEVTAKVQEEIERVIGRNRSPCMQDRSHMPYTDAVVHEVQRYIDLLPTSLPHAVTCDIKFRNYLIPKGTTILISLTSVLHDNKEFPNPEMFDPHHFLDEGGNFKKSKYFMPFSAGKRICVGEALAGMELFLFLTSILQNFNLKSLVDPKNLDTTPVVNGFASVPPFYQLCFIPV
Vascular endothelial growth factor receptor 2 (Homo sapiens), sequence (P35968 whole entry, the tested form may be a part): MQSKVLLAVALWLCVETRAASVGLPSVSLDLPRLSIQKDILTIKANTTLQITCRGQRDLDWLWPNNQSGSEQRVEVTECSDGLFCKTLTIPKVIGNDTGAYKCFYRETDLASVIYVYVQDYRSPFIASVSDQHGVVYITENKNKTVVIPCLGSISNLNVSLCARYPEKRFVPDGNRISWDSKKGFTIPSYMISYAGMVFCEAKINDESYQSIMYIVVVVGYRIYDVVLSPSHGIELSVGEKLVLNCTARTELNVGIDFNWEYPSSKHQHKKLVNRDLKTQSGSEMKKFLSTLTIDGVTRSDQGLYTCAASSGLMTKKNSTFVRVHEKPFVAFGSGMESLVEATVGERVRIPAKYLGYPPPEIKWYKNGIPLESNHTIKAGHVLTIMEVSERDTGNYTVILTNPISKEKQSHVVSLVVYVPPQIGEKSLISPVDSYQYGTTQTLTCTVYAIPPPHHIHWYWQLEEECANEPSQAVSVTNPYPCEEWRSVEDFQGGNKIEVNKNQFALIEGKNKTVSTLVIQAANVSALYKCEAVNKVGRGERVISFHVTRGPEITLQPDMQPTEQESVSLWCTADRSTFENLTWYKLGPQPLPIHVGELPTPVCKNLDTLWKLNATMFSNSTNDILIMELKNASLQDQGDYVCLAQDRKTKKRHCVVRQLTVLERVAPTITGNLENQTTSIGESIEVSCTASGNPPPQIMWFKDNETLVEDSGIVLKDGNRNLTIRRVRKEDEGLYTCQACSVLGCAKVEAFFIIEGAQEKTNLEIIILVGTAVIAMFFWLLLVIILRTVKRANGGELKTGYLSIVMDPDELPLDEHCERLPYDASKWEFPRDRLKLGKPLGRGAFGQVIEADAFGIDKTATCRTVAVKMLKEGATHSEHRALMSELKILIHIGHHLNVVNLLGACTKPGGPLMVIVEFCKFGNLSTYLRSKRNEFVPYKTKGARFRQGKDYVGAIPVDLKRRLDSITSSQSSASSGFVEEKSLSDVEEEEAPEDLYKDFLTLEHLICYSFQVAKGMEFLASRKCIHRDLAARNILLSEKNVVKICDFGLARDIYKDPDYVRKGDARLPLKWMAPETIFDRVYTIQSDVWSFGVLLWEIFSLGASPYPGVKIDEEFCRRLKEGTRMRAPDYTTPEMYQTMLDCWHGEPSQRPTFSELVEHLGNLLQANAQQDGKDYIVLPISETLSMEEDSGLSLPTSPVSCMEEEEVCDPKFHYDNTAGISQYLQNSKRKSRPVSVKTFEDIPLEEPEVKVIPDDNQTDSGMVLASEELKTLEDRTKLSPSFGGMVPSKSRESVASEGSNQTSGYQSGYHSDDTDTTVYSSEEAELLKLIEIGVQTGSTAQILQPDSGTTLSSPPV

CCc1nc(-c2ncc(OC)cn2)n(-c2cccc(C(=O)NCCCCc3ccccc3)c2)n1
IC50 (Cytochrome P450 1A2): > 50 µM | IC50 (Cytochrome P450 2B6): > 50 µM | Activity [1]: Non-Toxic | Activity (PANC-1 [2]): inactive | IC50 (Cytochrome P450 3A4): > 50 µM | inhibition (Myoferlin [3]): Dose-dependent effect | IC50 (Cytochrome P450 2C9): 20.5 µM | Activity (PANC-1 [4]): Dose-dependent effect | IC50 (PANC-1 [4]; PANC-1, 18 h): 0.11 µM | Activity (PANC-1 [5]): Non-Toxic | Activity (PANC-1 [6]): inactive | Activity (PANC-1 [7]): Active | survival at 50 mg/kg/day (PANC-1 [8]): 87.5% | Activity (PANC-1 [9]): inactive | IC50 (PANC-1 [10]): 0.84 µM | Activity (Capan-2): Dose-dependent effect | Activity (PANC-1 [11]): inactive | Activity [12]: Non-Toxic | Activity (PANC-1 [13]): inactive | Activity (PANC-1 [14]): inactive | Activity [15]: Non-Toxic | IC50 [16]: 8.54 µM | fold change (FC) (PANC-1 [17]): 3 | Activity [18]: inactive | Activity (Myoferlin [19]): Active | IC50 (MCF-10A): 27.6 µM | IC50 (MIA PaCa-2): 1.54 µM

Source: ChEMBL document CHEMBL4304741, “Modification and Biological Evaluation of a Series of 1,5-Diaryl-1,2,4-triazole Compounds as Novel Agents against Pancreatic Cancer Metastasis through Targeting Myoferlin” (J Med Chem, 2019)
